In patent US8426359B2, “Inhibitors of serine proteases, particularly HCV NS3-NS4A protease” (Vertex Pharmaceuticals Incorporated, priority 2003, dated 2013) one finds IC50 and Ki data, which are given here for 12 compounds.

Test [1] deals with Cells containing hepatitis C virus (HCV) replicon. As to the kind of experiment: HCV replicon cell assay. The test is classed as cell-based. The procedure: HCV Replicon Cell Assay Protocol:
Cells containing hepatitis C virus (HCV) replicon were maintained in DMEM containing 10% fetal bovine serum (FBS), 0.25 mg per ml of G418, with appropriate supplements (media A).
On day 1, replicon cell monolayer was treated with a trypsin: EDTA mixture, removed, and then media A was diluted into a final concentration of 100,000 cells per ml wit. 10,000 cells in 100 ul were plated into each well of a 96-well tissue culture plate, and cultured overnight in a tissue culture incubator at 37° C.
On day 2, compounds (in 100% DMSO) were serially diluted into DMEM containing 2% FBS, 0.5% DMSO, with appropriate supplements (media B). The final concentration of DMSO was maintained at 0.5% throughout the dilution series.
Media on the replicon cell monolayer was removed, and then media B containing various concentrations of compounds was added. Media B without any compound was added to other wells as no compound controls.
Cells were incubated with compound or 0.5% DMSO in media B for 48 hours in a tissue culture incubator at 37° C. At the end of the 48-hour incubation, the media was removed, and the replicon cell monolayer was washed once with PBS and stored at −80° C. prior to RNA extraction.
Culture plates with treated replicon cell monolayers were thawed, and a fixed amount of another RNA virus, such as Bovine Viral Diarrhea Virus (BVDV) was added to cells in each well. RNA extraction reagents (such as reagents from RNeasy kits) were added to the cells immediately to avoid degradation of RNA. Total RNA was extracted according the instruction of manufacturer with modification to improve extraction efficiency and consistency. Finally, total cellular RNA, including HCV replicon RNA, was eluted and stored at −80° C. until further processing.
A Taqman real-time RT-PCR quantification assay was set up with two sets of specific primers and probe. One was for HCV and the other was for BVDV. Total RNA extractants from treated HCV replicon cells was added to the PCR reactions for quantification of both HCV and BVDV RNA in the same PCR well. Experimental failure was flagged and rejected based on the level of BVDV RNA in each well. The level of HCV RNA in each well was calculated according to a standard curve run in the same PCR plate. The percentage of inhibition or decrease of HCV RNA level due to compound treatment was calculated using the DMSO or no compound control as 0% of inhibition. The IC50 (concentration at which 50% inhibition of HCV RNA level is observed) was calculated from the titration curve of any given compound.
On the technique in general: A replicon is a self-replicating genome or part of one, used to study replication in cells.

A further test has as its target T1, HCV NS3-NS4A protease (Hepatitis C virus genotype 1a, UniProt P27958).
T1 construct: The buffer, KK4A, DTT, and tNS3 were combined
As to the kind of experiment: HCV enzyme assay (HPLC microbore separation of 5AB substrate and products). The test is classed as biochemical. On the procedure:
HCV Enzyme Assay Protocol
HPLC Microbore Method for Separation of 5AB Substrate and Products
• NH2-Glu-Asp-Val-Val-(alpha)Abu-Cys-Ser-Met-Ser-Tyr-COOH
A stock solution of 20 mM 5AB (or concentration of your choice) was made in DMSO w/0.2M DTT. This was stored in aliquots at −20 C.
Buffer: 50 mM HEPES, pH 7.8; 20% glycerol; 100 mM NaCl
Total assay volume was 100 μL
The buffer, KK4A, DTT, and tNS3 were combined; distributed 78 μL each into wells of 96 well plate. This was incubated at 30 C for ˜5-10 min.
2.5 μL of appropriate concentration of test compound was dissolved in DMSO (DMSO only for control) and added to each well. This was incubated at room temperature for 15 min.
Incubated for 20 min at 30 C.
Terminated reaction by addition of 25 μL of 10% TFA
Transferred 120 μL aliquots to HPLC vials
Separated SMSY product from substrate and KK4A by the following method:
Microbore Separation Method:
Instrumentation: Agilent 1100
• Degasser G1322A • Binary pump G1312A • Autosampler G1313A • Column thermostated chamber G1316A • Diode array detector G1315A Column: • Phenomenex Jupiter; 5 micron C18; 300 angstroms; 150×2 mm; P/O 00F-4053-B0 • Column thermostat: 40 C • Injection volume: 100 μL • Solvent A=HPLC grade water+0.1% TFA • Solvent B=HPLC grade acetonitrile+0.1% TFA
• Stop time: 17 min • Post-run time: 10 min.

[2] abbreviates: 50% inhibition of HCV RNA level, 48-hour incubation, Taqman real-time RT-PCR, read-out: IC50.

Where two headings read alike, the source gives them in different places.

T1 sequence (P27958 1027-1208): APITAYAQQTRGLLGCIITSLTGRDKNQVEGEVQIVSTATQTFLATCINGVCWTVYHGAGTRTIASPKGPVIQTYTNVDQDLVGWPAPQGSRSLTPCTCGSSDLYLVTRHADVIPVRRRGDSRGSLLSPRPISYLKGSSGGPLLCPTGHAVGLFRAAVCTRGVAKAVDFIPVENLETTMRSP

By IC50 is commonly meant the midpoint of a concentration-inhibition curve. In general, Ki refers to a dissociation constant, usually derived from enzyme kinetics or from competition with a known ligand. With `CCC[C@H](NC(=O)[C@@H]1C[C@@H](Oc2ccc(Cl)cn2)CN1C(=O)[C@@H](NC(=O)[C@@H](NC(=O)C(=O)NCC(C)C)C1CCCCC1)C(C)(C)C)C(=O)C(=O)NC1CC1` [Compound 12], the half-inhibitory concentration (IC50) in test [1] (setting [2]) is less than 100 nM. Further, at HCV NS3-NS4A protease, the Ki is 100 to 250 nM.

As for `CCC[C@H](NC(=O)[C@@H]1C[C@@H]2CCCC[C@@H]2N1C(=O)[C@@H](NC(=O)[C@@H](NC(=O)C(=O)NCC(C)C)C1CCCCC1)C(C)(C)C)C(=O)C(=O)NC1CC1` [Compound 6], the half-inhibitory concentration (IC50) in test [1] (setting [2]) fell in the range of 250 to 1000 nM. The compound further came in with a Ki on HCV NS3-NS4A protease of 100 to 250 nM.

In the case of `CCC[C@H](NC(=O)C1C[C@@H](Oc2ccc(Cl)cn2)CN1C(=O)[C@@H](NC(=O)[C@@H](NC(=O)C(=O)NC1CC1)C1CCCCC1)C(C)(C)C)C(=O)C(=O)NC1CC1` (stereo partly drawn) [Compound 10], the IC50 in test [1] (setting [2]) is less than 100 nM. The Ki on HCV NS3-NS4A protease fell in the range of 100 to 250 nM.

Take `CCC[C@H](NC(=O)[C@@H]1C[C@@H]2CCCC[C@@H]2N1C(=O)[C@@H](NC(=O)[C@@H](NC(=O)C(=O)NCc1ccccc1)C1CCCCC1)C(C)(C)C)C(=O)C(=O)NC1CC1` [Compound 2]: the IC50 in test [1] (setting [2]) lay in the range of 250 to 1000 nM. Moreover, the Ki at HCV NS3-NS4A protease is 100 to 250 nM.

On to `CCC[C@H](NC(=O)[C@@H]1C[C@@H]2CCCC[C@@H]2N1C(=O)[C@@H](NC(=O)[C@@H](NC(=O)C(=O)NC1CCCC1)C1CCCCC1)C(C)(C)C)C(=O)C(=O)NC1CC1` [Compound 9], for which, in test [1] (setting [2]), the half-maximal inhibitory concentration (IC50) was in the range of 250 to 1000 nM. On HCV NS3-NS4A protease, this compound returned a Ki of 250 to 1000 nM.

Turning to `CCC[C@H](NC(=O)[C@@H]1C[C@@H](Oc2ccc(Cl)cn2)CN1C(=O)[C@@H](NC(=O)[C@@H](NC(=O)C(=O)NCc1ccccc1)C1CCCCC1)C(C)(C)C)C(=O)C(=O)NC1CC1` [Compound 11], the concentration for half-maximal inhibition (IC50) in test [1] (setting [2]) is less than 100 nM. This compound had a Ki on HCV NS3-NS4A protease of 100 to 250 nM.

Regarding `CCC[C@H](NC(=O)[C@@H]1C[C@@H]2CCCC[C@@H]2N1C(=O)[C@@H](NC(=O)[C@@H](NC(=O)C(=O)Nc1cc(C)on1)C1CCCCC1)C(C)(C)C)C(=O)C(=O)NC1CC1` [Compound 7], in test [1] (setting [2]), the 50% inhibitory concentration (IC50) was 250 to 1000 nM. Further, the Ki on HCV NS3-NS4A protease was 100 to 250 nM.

Take `CCC[C@H](NC(=O)[C@@H]1C[C@@H]2CCCC[C@@H]2N1C(=O)[C@@H](NC(=O)[C@@H](NC(=O)C(=O)NC1CC1)C1CCCCC1)C(C)(C)C)C(=O)C(=O)NC1CC1` [Compound 4]: the IC50 in test [1] (setting [2]) was in the range of 250 to 1000 nM. The Ki at HCV NS3-NS4A protease was 100 to 250 nM.

Turning to `CCC[C@H](NC(=O)[C@@H]1C[C@@H]2CCCC[C@@H]2N1C(=O)[C@@H](NC(=O)[C@@H](NC(=O)C(=O)NCC1CCCCC1)C1CCCCC1)C(C)(C)C)C(=O)C(=O)NC1CC1` [Compound 3], the IC50 in test [1] (setting [2]) was in the range of 250 to 1000 nM. This compound also registered a Ki at HCV NS3-NS4A protease of 100 to 250 nM.

With `CCC[C@H](NC(=O)[C@@H]1C[C@@H]2CCCC[C@@H]2N1C(=O)[C@@H](NC(=O)[C@@H](NC(=O)C(=O)NC1CCCCC1)C1CCCCC1)C(C)(C)C)C(=O)C(=O)NC1CC1` [Compound 8], the 50% inhibitory concentration (IC50) in test [1] (setting [2]) is 250 to 1000 nM. On HCV NS3-NS4A protease, the inhibitory constant (Ki) lay in the range of 100 to 250 nM.

For `CCC[C@H](NC(=O)[C@@H]1C[C@@H]2CCCC[C@@H]2N1C(=O)[C@@H](NC(=O)[C@@H](NC(=O)C(=O)NC(C)C)C1CCCCC1)C(C)(C)C)C(=O)C(=O)NC1CC1` [Compound 5], the half-maximal inhibitory concentration (IC50) in test [1] (setting [2]) fell in the range of 250 to 1000 nM. At HCV NS3-NS4A protease, the inhibitory constant (Ki) lay in the range of 100 to 250 nM.

`CCC[C@H](NC(=O)[C@@H]1CC2CCCCC2N1C(=O)[C@@H](NC(=O)[C@@H](NC(=O)C(=O)Nc1ccccc1)C1CCCCC1)C(C)(C)C)C(=O)C(=O)NC1CC1` (stereo partly drawn) [Compound 1] yielded a 50% inhibitory concentration (IC50) in test [1] (48 h) of 250 to 1000 nM. The Ki on HCV NS3-NS4A protease (25 nM tNS3, 25 μM KK4A, 25 μM 5AB substrate, 20 min at 30 C, read-out: Ki) lay within 100 to 250 nM.
